{
  "source": "paper PMC3003168",
  "about": "“Preparation and In vitro / In vivo characterization of spray dried microsphere formulation encapsulating 4-chlorocurcumin” (Indian Journal of Pharmaceutical Sciences, 2010)",
  "key": {"[1]": {"experiment": "Pharmacokinetics of 4-chlorocurcumin in rats", "assay_type": "in vivo", "settings": "male, Wistar, blood, iv; rat, i.v. solution, 2.8 mg", "protocol": "From the data of the release studies, a suitable microsphere formulation to be used further in the rat studies was selected. For in vivo characterization, in vivo drug release (pharmacokinetic study) and reduction in hepatoprotective activity in a CCl4-treated rat model were determined. Pharmacokinetics of the formulation was studied in male Wistar rats. After procurement of the rats, these were acclimatized for 10 days prior to the conduction of the experiment. Rats were injected one time with microsphere suspension containing 2.8 mg of active drug intraperitoneally. A 20 mg microsphere suspension was dispersed in 1 ml normal saline and was injected. Parallel to the microsphere administration, another dose of the drug in the form of solution was administered via i.v. route in another set of rats. In this case drug was administered at an equivalent dose of 2.8 mg. Blood was periodically collected from retroorbital sinus and assayed for the drug using a HPLC standard developed using a previously reported method. The mobile phase consisted of methanol:water at a ratio of 70:30. The retention times and the peak areas were noted. Extraction efficiency for the selected system was determined. The following possible pharmacokinetic parameters for both iv solution administration as well as ip microsphere administration were determined using WinNonlin: Ka, ke, Vd, elimination t1/2, absorption t1/2, Tmax, Cmax. Further, using Wagner-Nelson method cumulative amount of drug released into the plasma was determined."}, "CCl4-treated rat model": {"system": "CCl4-treated rat model", "experiment": "Hepatoprotective activity in CCl4-treated rat model", "assay_type": "in vivo, male Wistar rats", "settings": "CCl4-treated rats", "protocol": "Hepatoprotective activity was determined for both the microsphere formulation and i.v. solution administration of 4-chlorocurcumin following a protocol reported previously. Another set of rats were used in this study. Male rats weighing around 150-200 g was used in this study. For this experiment, animals were divided into 6 different groups. Group I were normal control. Group II was given carbontetrachloride regularly and it served as toxic control. Group II received CCl4 at a dose of 0.7 ml/kg by intraperitonial route on the 3rd, 6th and 9th day consisting of mixture of CCl4 and olive oil (25:75). Group III received the drug in the solution form by i.v. route. Group III received 4-chlorocurcumin dissolved in PEG 600 solution at a rationale of 1 mg/ml by intravenous route twice daily. Group IV received 4-chlorocurcumin microsphere formulation one time in the beginning of the experiment. Microspheres 2 was administered for this purpose. A 20 mg of formulation was dispersed in 1 ml normal saline and was administered intraperitoneally. Group V were injected with placebo microspheres and Group VI served as a control for PEG injected and was injected 1 ml of PEG solution twice a day. Serum samples were procured from the blood samples collected from common carotid artery on the final day of experimentation prior to sacrifice of the animal. The blood samples collected were subjected to centrifugation for 15 min at 3000 rpm and the serum separated was transferred into fresh empty microcentrifuge tube and was stored in deep freeze for pharmacodynamic evaluation. Hepatoprotective activity was quantified by the activity of SGOT, SGPT levels present in the serum samples and the method used for quantification was modified IFFC method. Subsequently, livers of the all rats in each group were further sent for histopathological studies and for this purpose at the end of the study the rats were sacrificed, the livers were separated carefully and were transferred to sterile containers having formalin solution. Liver sections were subsequently prepared using a previously published method."}, "[2]": {"settings": "serum, final day, solution i.v. twice daily, microspheres 20 mg i.p. one time"}},
  "data": [
    {"smiles": "O=C(/C=C/c1ccc(Cl)cc1)CC(=O)/C=C/c1ccc(Cl)cc1", "note": "[4-chlorocurcumin]", "values": [
      {"measurement": "AUC", "setting": "[1]", "result": 227, "unit": "µg·h/mL"},
      {"measurement": "Cmax", "setting": "[1]", "result": 196, "unit": "µg/mL"},
      {"measurement": "Tmax", "setting": "[1]", "result": 0.5, "unit": "h"},
      {"measurement": "Vd", "setting": "[1]", "result": 0.0235, "unit": "L"},
      {"measurement": "clearance", "setting": "[1]", "result": 0.137, "unit": "mL/min"},
      {"measurement": "half-life", "setting": "[1]", "result": 1.99, "unit": "h"},
      {"measurement": "Hepatoprotective activity (reversal of SGOT and SGPT versus toxic control CCl4)", "setting": "CCl4-treated rat model", "result": "although statistically significant, was not reduced to reach the normal levels"},
      {"measurement": "Histology of liver", "setting": "CCl4-treated rat model; end of study", "result": "Normal liver"},
      {"measurement": "SGOT", "setting": "CCl4-treated rat model; [2]", "result": "42.10±1.5", "unit": "u/1"},
      {"measurement": "SGPT", "setting": "CCl4-treated rat model; [2]", "result": "25.7±1.8", "unit": "u/1"},
      {"measurement": "Body weights on day 9", "setting": "CCl4-treated rat model; solution i.v. twice daily, microspheres 20 mg i.p. one time", "result": "190 ± 18", "unit": "g"}
    ]}
  ]
}
